Some results are limits rather than exact numbers.

Test in all cases: whole plant or invertebrate
Common to all, as to type: in vivo

For experiment [1], the system named is corn planthopper (Peregrinus maidis (Ashmead)). To be noted: 144 h, corn plant, nymphs, assessed after 6 days; for mortality at 50 ppm: sprayed at 50 ppm; for mortality at 10 ppm: sprayed at 10 ppm. Here is the method: (§1) Test compounds were formulated using a solution containing 10% acetone, 90% water and 300 ppm Activator 90® non-ionic surfactant (Loveland Products, Loveland, Colorado, USA). The formulated compounds were applied in 1 mL of liquid through an atomizer nozzle positioned 1.27 cm (0.5 inches) above the top of each test unit. Test compounds were sprayed at the rates indicated, and each test was replicated three times.
For evaluating control of corn planthopper (Peregrinus maidis (Ashmead)) through contact and/or systemic means, the test unit consisted of a small open container with a 3-4-day-old corn (maize) plant inside. White sand was added to the top of the soil prior to application of the test compound.
Test compounds were formulated and sprayed at 250 and/or 50 ppm and/or 10 ppm. After spraying of the formulated test compound, the test units were allowed to dry for 1 h before they were post-infested with ˜15-20 nymphs (18-to-21-day-old). A black, screened cap was placed on the top of each test unit, and the test units were held for 6 days in a growth chamber at 22-24° C. and 50-70% relative humidity. Each test unit was then visually assessed for insect mortality.

Experiment [2] has as its system cotton melon aphid (Aphis gossypii (Glover)). To be noted: 144 h, okra plant, assessed after 6 days; for mortality at 50 ppm: sprayed at 50 ppm; for mortality at 10 ppm: tested at 10 ppm. Here is the method: as §1
For evaluating control of cotton melon aphid (Aphis gossypii (Glover)) through contact and/or systemic means, the test unit consisted of a small open container with a 5-day-old okra plant inside. This was pre-infested with 30-40 insects on a piece of leaf according to the cut-leaf method, and the soil of the test unit was covered with a layer of sand.
[…] After spraying, the test units were maintained in a growth chamber for 6 days at 19° C. and 70% relative humidity. Each test unit was then visually assessed for insect mortality.

The subject of experiment [3] is sweetpotato whitefly (Bemisia tabaci (Gennadius)). To be noted: 312 h, cotton plant infested with eggs, assessed after 13 days; for mortality at 50 ppm: sprayed at 50 ppm; for mortality at 10 ppm: tested at 10 ppm. Here is the method:
as §1
For evaluating control of the sweetpotato whitefly (Bemisia tabaci (Gennadius)) through contact and/or systemic means, the test unit consisted of a small open container with a 12-14-day-old cotton plant inside. Prior to the spray application, both cotyledons were removed from the plant, leaving one true leaf for the assay. Adult whiteflies were allowed to lay eggs on the plant and then were removed from the test unit. Cotton plants infested with at least 15 eggs were submitted to the test for spraying.
[…] After spraying, the test units were allowed to dry for 1 hour. The cylinders were then removed, and the units were taken to a growth chamber and held for 13 days at 28° C. and 50-70% relative humidity. Each test unit was then visually assessed for insect mortality.

Experiment [4] deals with green peach aphid (Myzus persicae (Sulzer)). To be noted: 144 h, sprayed at 50 ppm, radish plant, assessed after 6 days. As to the method: as §1
For evaluating control of green peach aphid (Myzus persicae (Sulzer)) through contact and/or systemic means, the test unit consisted of a small open container with a 12-15-day-old radish plant inside. This was pre-infested by placing on a leaf of the test plant 30-40 aphids on a piece of leaf excised from a culture plant (cut-leaf method). The aphids moved onto the test plant as the leaf piece desiccated. After pre-infestation, the soil of the test unit was covered with a layer of sand.
Test compounds were formulated and sprayed at 250 and/or 50 ppm. After spraying of the formulated test compound, each test unit was allowed to dry for 1 hour and then a black, screened cap was placed on top. The test units were held for 6 days in a growth chamber at 19-21° C. and 50-70% relative humidity. Each test unit was then visually assessed for insect mortality.

By mortality is commonly meant the percentage killed. Lower therefore signals more survivors. Take `Fc1cncc(-n2nccn2)c1Cc1cccc(OC(F)(F)C(F)F)c1` [Compound 65]: the mortality at 50 ppm in experiment [1] and in experiment [2] was at least 80% throughout.

On to `FC(F)(F)Oc1ccc(Cc2ccncc2-n2nccn2)cc1` [Compound 16], for which the mortality at 50 ppm in experiment [1] is at least 80%; in experiment [2] it was at least 80%; in experiment [3] it was at least 70%. In experiment [2], the mortality at 10 ppm was at least 80%.

As to `FC(F)(F)Sc1ccc(Cc2c(Cl)cncc2-c2nccs2)cc1` [Compound 35], the mortality at 50 ppm in experiment [1] is at least 80%; in experiment [2], at least 80%; in experiment [3], at least 70%.

In the case of `CC(c1ccc(SC(F)(F)F)cc1)c1c(Cl)cncc1-n1cncn1` (centres unmarked) [Compound 51], the mortality at 50 ppm in experiment [1] was at least 80%; in experiment [4] it was at least 80%; in experiment [2], at least 80%; in experiment [3], at least 70%.

Regarding `FC(F)(F)Sc1ccc(Cc2c(Cl)cncc2-n2ccnn2)cc1` [Compound 6], the results for the mortality at 50 ppm in experiment [1] and in experiment [3] were at least 80% and at least 70%, respectively.

Take `Fc1cncc(-c2ncco2)c1Cc1ccc(OC(F)(F)F)cc1` [Compound 41]: in experiment [1], the mortality at 10 ppm was at least 80% and the mortality at 50 ppm is at least 80%. Further, in experiment [2], the mortality at 50 ppm is at least 80% and the mortality at 10 ppm is at least 80%.

On to `CC(c1ccc(SC(F)(F)F)cc1)c1c(Cl)cncc1-n1nccn1` (centres unmarked) [Compound 14], for which the mortality at 50 ppm in experiment [4] was at least 80%; in experiment [2] it was at least 80%; in experiment [3] it was at least 70%.

With `CC(c1ccc(OC(F)(F)F)cc1)c1c(F)cncc1-c1nccs1` (centres unmarked) [Compound 63], the mortality at 10 ppm in experiment [1] and in experiment [2] was at least 80% throughout. For the same molecule, the mortality at 50 ppm is at least 80% in experiment [1], at least 80% in experiment [4], at least 80% in experiment [2] and at least 70% in experiment [3].

For `Fc1cc(Cc2c(F)cncc2-n2nccn2)ccc1C(F)(F)F` [Compound 73], in experiment [1], the mortality at 10 ppm is at least 80% and the mortality at 50 ppm was at least 80%. For the same molecule, in experiment [2], the mortality at 50 ppm is at least 80% and the mortality at 10 ppm was at least 80%.

Take `FC(F)Oc1ccc(Cc2c(Cl)cncc2-n2cccn2)cc1` [Compound 45]: the mortality at 10 ppm in experiment [1] was at least 80%. For the same molecule, the values for the mortality at 50 ppm in experiment [1], in experiment [2] and in experiment [3] were at least 80%, at least 80% and at least 70%, respectively.

Regarding `CC(c1ccc(SC(F)(F)F)cc1)c1c(F)cncc1-n1cncn1` (centres unmarked) [Compound 52], the mortality at 50 ppm in experiment [1] was at least 80%; in experiment [4], at least 80%; in experiment [2] it was at least 80%; in experiment [3], at least 70%.

In experiment [1], `Fc1cc(Cc2c(Cl)cncc2-n2nccn2)ccc1C(F)(F)F` [Compound 72] registered a mortality at 10 ppm of at least 80%. The mortality at 50 ppm in experiment [1] was at least 80%; in experiment [4], at least 80%; in experiment [2] it was at least 80%; in experiment [3] it was at least 70%.

On to `FC(F)(F)Oc1ccc(Cc2c(Cl)cncc2-n2nccn2)cc1Br` [Compound 68], for which the mortality at 10 ppm in experiment [1] was at least 80%; in experiment [3], at least 70%. Moreover, the mortality at 50 ppm in experiment [1] was at least 80%; in experiment [4], at least 80%; in experiment [3], at least 70%.

With `FC(F)(F)Oc1ccc(Cc2c(I)cncc2-n2nccn2)cc1` [Compound 17], the values for the mortality at 50 ppm in experiment [2] and in experiment [3] were at least 80% and at least 70%, respectively.

In the case of `FC(F)(F)Oc1ccc(Cc2c(Cl)cncc2-n2nccn2)cc1` [Compound 12], the mortality at 10 ppm in experiment [1] was at least 80%. Also, the mortality at 50 ppm in experiment [1], in experiment [4] and in experiment [2] was at least 80% in each case.

With `CCC(c1ccc(OC(F)(F)F)cc1)c1c(F)cncc1-n1nccn1` (centres unmarked) [Compound 60], the mortality at 50 ppm is at least 80% in experiment [1], at least 80% in experiment [2] and at least 70% in experiment [3]. This molecule also showed a mortality at 10 ppm in experiment [3] of at least 70%.

Turning to `FC(F)(F)Sc1ccc(Cc2ccncc2-n2nccn2)cc1` [Compound 23], the mortality at 10 ppm in experiment [1] was at least 80%. Moreover, the mortality at 50 ppm in experiment [1] is at least 80%; in experiment [4] it was at least 80%; in experiment [2], at least 80%; in experiment [3] it was at least 70%.

For the molecule `CC(c1ccc(SC(F)(F)F)cc1)c1c(F)cncc1-n1ccnn1` (centres unmarked) [Compound 11], the mortality at 50 ppm in experiment [1] and in experiment [2] was at least 80% throughout.

With `Fc1cc(Cc2c(F)cncc2-n2nccn2)ccc1OC(F)(F)F` [Compound 66], the mortality at 10 ppm in experiment [1] and in experiment [2] was at least 80% in each case. Besides, the mortality at 50 ppm in experiment [1] is at least 80%; in experiment [2] it was at least 80%; in experiment [3], at least 70%.

As to `FC(F)Oc1ccc(Cc2c(Cl)cncc2-n2nccn2)cc1` [Compound 46], the values for the mortality at 10 ppm in experiment [1] and in experiment [3] were at least 80% and at least 70%, respectively. The mortality at 50 ppm in experiment [1] was at least 80%; in experiment [2], at least 80%; in experiment [3], at least 70%.

In the case of `Fc1cncc(-c2nccs2)c1Cc1ccc(OC(F)(F)F)cc1` [Compound 40], the mortality at 10 ppm in experiment [1] was at least 80%; in experiment [2], at least 80%; in experiment [3] it was at least 70%. The figures for the mortality at 50 ppm in experiment [1], in experiment [2] and in experiment [3] were at least 80%, at least 80% and at least 70%, respectively.

In turn, `CC(c1ccc(SC(F)(F)F)cc1)c1c(F)cncc1-c1nccs1` (centres unmarked) [Compound 54] showed a mortality at 10 ppm in experiment [1] of at least 80%. Further, the mortality at 50 ppm in experiment [1] was at least 80%; in experiment [2], at least 80%; in experiment [3] it was at least 70%.

Consider `FC(F)(F)Sc1ccc(Cc2c(Cl)cncc2-c2ncco2)cc1` [Compound 37], for which, in experiment [1], the mortality at 50 ppm is at least 80%.

Take `[O-][S+](c1ccc(Cc2c(Cl)cncc2-n2nccn2)cc1)C(F)(F)F` (centres unmarked) [Compound 22]: the mortality at 50 ppm is at least 80% in experiment [4], at least 80% in experiment [2] and at least 70% in experiment [3].

For `CC(c1ccc(OC(F)(F)F)cc1)c1c(F)cncc1-n1nccn1` (centres unmarked) [Compound 9, 3-fluoro-5-(triazol-2-yl)-4-[1-[4-(trifluoromethoxy)phenyl]ethyl]pyridine], the mortality at 10 ppm in experiment [1] and in experiment [2] was at least 80% each time. Besides, the mortality at 50 ppm in experiment [1] was at least 80%; in experiment [4], at least 80%; in experiment [2], at least 80%; in experiment [3], at least 70%.

Consider `Fc1cncc(-n2nccn2)c1Cc1ccc(OC(F)(F)F)c(Br)c1` [Compound 69], for which the mortality at 10 ppm in experiment [1] was at least 80%. Moreover, the mortality at 50 ppm in experiment [1] was at least 80%; in experiment [4], at least 80%; in experiment [2], at least 80%; in experiment [3], at least 70%.

As for `CC(c1ccc(SC(F)(F)F)cc1)c1c(F)cncc1-n1cccn1` (centres unmarked) [Compound 50], the mortality at 50 ppm in experiment [1] and in experiment [2] was at least 80% throughout.

Consider `CCC(c1ccc(SC(F)(F)F)cc1)c1c(F)cncc1-n1nccn1` (centres unmarked) [Compound 57], for which the mortality at 10 ppm was at least 80% in experiment [1] and at least 70% in experiment [3]. The mortality at 50 ppm was at least 80% in experiment [1], at least 80% in experiment [2] and at least 70% in experiment [3].

With `FC(F)(F)Oc1ccc(Cc2c(Br)cncc2-n2nccn2)cc1` [Compound 15], the mortality at 50 ppm in experiment [4] is at least 80%; in experiment [2] it was at least 80%; in experiment [3], at least 70%.

In experiment [1], `Fc1cncc(-c2ncco2)c1Cc1ccc(SC(F)(F)F)cc1` [Compound 30] registered a mortality at 10 ppm of at least 80% and a mortality at 50 ppm of at least 80%. In experiment [2], the mortality at 50 ppm was at least 80% and the mortality at 10 ppm is at least 80%.
